Assay results taken from PubChem BioAssay AID248 (DTP/NCI, 2004).
Inconclusive results and toxic doses are left out. No stated cut-off is given here; in the data, active means T/C of 150% or more; inactive means T/C below 125%.

Tested on: L1210 leukemia ip in BDF1 mice, survival T/C
Assay: NCI In Vivo Anticancer Drug Screen. Data for tumor model L1210 Leukemia (intraperitoneal) in B6D2F1 (BDF1) mice
Conditions: endpoint: mean survival time, higher = longer survival
Method in brief: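 Mice bearing the transplanted tumor received compound or vehicle. Survival of the treated group was divided by that of the vehicle-treated control group to give the ratio.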

[1] = dose: 100.0 mg/kg/injection, schedule: Q01DX001 (ip), vehicle: carboxymethylcellulose (CMC)
[2] = dose: 200.0 mg/kg/injection, schedule: Q01DX001 (ip), vehicle: carboxymethylcellulose (CMC)
[3] = dose: 400.0 mg/kg/injection, schedule: Q01DX001 (ip), vehicle: carboxymethylcellulose (CMC)
[4] = dose: 100.0 mg/kg/injection, schedule: Q01DX001 (ip), vehicle: saline

Measured: T/C

Cc1ccc(NC(=O)Oc2ccc(OC(=O)Cc3ccccc3)cc2)cc1NC(=O)Oc1ccc(OC(=O)Cc2ccccc2)cc1
inactive: dose: 100.0 mg/kg/injection, schedule: Q01DX009 (ip), vehicle: other 96 % of control | dose: 200.0 mg/kg/injection, schedule: Q01DX009 (ip), vehicle: other 98 % of control | dose: 400.0 mg/kg/injection, schedule: Q01DX009 (ip), vehicle: other 93 % of control

NC(CSSCC(N)C(=O)O)C(=O)O (configuration not stated)
inactive: [1] 95 % of control | dose: 100.0 mg/kg/injection, schedule: Q04DX003 (ip), vehicle: Klucel (hydroxypropylcellulose) (HPC) 93 % of control | [2] 94 % of control | dose: 200.0 mg/kg/injection, schedule: Q04DX003 (ip), vehicle: Klucel (hydroxypropylcellulose) (HPC) 93 % of control | [3] 95 % of control | dose: 400.0 mg/kg/injection, schedule: Q04DX003 (ip), vehicle: Klucel (hydroxypropylcellulose) (HPC) 91 % of control

CC1CN(Cc2cccc(C#N)c2)CC(C)N1 (configuration not stated)
inactive: dose: 25.0 mg/kg/injection, schedule: Q01DX009 (ip), vehicle: water 93 % of control | dose: 50.0 mg/kg/injection, schedule: Q01DX009 (ip), vehicle: water 101 % of control | dose: 100.0 mg/kg/injection, schedule: Q01DX009 (ip), vehicle: water 100 % of control

COC(=O)c1cc(C)cc(N(c2ccccc2[N+](=O)[O-])S(=O)(=O)c2ccc(C)cc2)c1C
inactive: [1] 96 % of control | [2] 104 % of control | [3] 98 % of control

OCC1OC(c2[nH]nc3c(Cl)ncnc23)C(O)C1O (configuration not stated)
inactive: dose: 100.0 mg/kg/injection, schedule: Q01DX005 (ip), vehicle: saline 108 % of control | dose: 200.0 mg/kg/injection, schedule: Q01DX005 (ip), vehicle: saline 120 % of control

CCCCNCC1COc2cccc(OCC)c2O1 (configuration not stated)
inactive: dose: 6.25 mg/kg/injection, schedule: Q01DX009 (ip), vehicle: saline 107 % of control | dose: 12.5 mg/kg/injection, schedule: Q01DX009 (ip), vehicle: saline 105 % of control | dose: 12.5 mg/kg/injection, schedule: Q04DX003 (ip), vehicle: saline 106 % of control | dose: 25.0 mg/kg/injection, schedule: Q01DX009 (ip), vehicle: saline 108 % of control | dose: 25.0 mg/kg/injection, schedule: Q04DX003 (ip), vehicle: saline 95 % of control | dose: 50.0 mg/kg/injection, schedule: Q01DX009 (ip), vehicle: saline 113 % of control | dose: 50.0 mg/kg/injection, schedule: Q04DX003 (ip), vehicle: saline 108 % of control | [4] 103 % of control | dose: 100.0 mg/kg/injection, schedule: Q04DX003 (ip), vehicle: saline 95 % of control

CCCCCCCCCCCCCC[N+]1(C)CCS(=O)CC1 (configuration not stated)
inactive: dose: 25.0 mg/kg/injection, schedule: Q01DX001 (ip), vehicle: saline 102 % of control | dose: 50.0 mg/kg/injection, schedule: Q01DX001 (ip), vehicle: saline 107 % of control | [4] 102 % of control

CC1/C(=N\O)CC2C3(C)CCC2(C(C)C(=O)O)C(=O)C13 (configuration not stated)
inactive: dose: 100.0 mg/kg/injection, schedule: Q01DX001 (ip), vehicle: Klucel (hydroxypropylcellulose) (HPC) 100 % of control | dose: 200.0 mg/kg/injection, schedule: Q01DX001 (ip), vehicle: Klucel (hydroxypropylcellulose) (HPC) 100 % of control | dose: 400.0 mg/kg/injection, schedule: Q01DX001 (ip), vehicle: Klucel (hydroxypropylcellulose) (HPC) 92 % of control

Cc1nc(SCc2ccc(Cl)cc2)nc(N2CC2)c1Br
inactive: dose: 59.0 mg/kg/injection, schedule: Q01DX Z (ip), vehicle: methylcellulose (MC) 94 % of control | dose: 88.0 mg/kg/injection, schedule: Q01DX Z (ip), vehicle: methylcellulose (MC) 86 % of control | dose: 200.0 mg/kg/injection, schedule: Q01DX Z (ip), vehicle: methylcellulose (MC) 95 % of control

CC(=O)N(C)c1ccc(NC(=O)CCl)cc1
inactive: dose: 100.0 mg/kg/injection, schedule: Q01DX009 (ip), vehicle: Klucel (hydroxypropylcellulose) (HPC) 109 % of control | dose: 200.0 mg/kg/injection, schedule: Q01DX009 (ip), vehicle: Klucel (hydroxypropylcellulose) (HPC) 116 % of control
